One assay addresses T1, CYP11B2 (Homo sapiens, UniProt P19099).
T1 sequence (P19099 30-503 limits assumed): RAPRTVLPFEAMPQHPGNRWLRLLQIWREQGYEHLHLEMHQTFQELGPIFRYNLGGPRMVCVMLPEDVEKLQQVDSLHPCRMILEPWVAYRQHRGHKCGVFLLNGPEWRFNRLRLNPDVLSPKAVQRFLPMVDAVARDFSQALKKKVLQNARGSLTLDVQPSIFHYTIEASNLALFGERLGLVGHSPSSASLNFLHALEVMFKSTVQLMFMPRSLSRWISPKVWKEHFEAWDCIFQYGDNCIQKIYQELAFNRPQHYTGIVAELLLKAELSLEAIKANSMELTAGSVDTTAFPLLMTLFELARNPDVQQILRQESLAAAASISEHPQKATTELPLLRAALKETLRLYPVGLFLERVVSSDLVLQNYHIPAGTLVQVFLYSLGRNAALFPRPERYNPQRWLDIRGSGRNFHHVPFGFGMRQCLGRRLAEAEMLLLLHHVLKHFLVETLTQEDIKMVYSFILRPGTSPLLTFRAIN
The format is binding. The following applies: isolated CYP11B2 0.2 μM, 5 cm path length.

Assay [1] has as its system adrenodoxin–CYP11B2 fusion protein. Format: binding, human. The conditions noted are these: fusion versus isolated CYP11B2.
Assay [2] addresses T2, adrenodoxin–CYP11B2 fusion protein (Homo sapiens, UniProt P10109+P19099).
T2 sequence (P10109+P19099 with tags, fused parts or gaps): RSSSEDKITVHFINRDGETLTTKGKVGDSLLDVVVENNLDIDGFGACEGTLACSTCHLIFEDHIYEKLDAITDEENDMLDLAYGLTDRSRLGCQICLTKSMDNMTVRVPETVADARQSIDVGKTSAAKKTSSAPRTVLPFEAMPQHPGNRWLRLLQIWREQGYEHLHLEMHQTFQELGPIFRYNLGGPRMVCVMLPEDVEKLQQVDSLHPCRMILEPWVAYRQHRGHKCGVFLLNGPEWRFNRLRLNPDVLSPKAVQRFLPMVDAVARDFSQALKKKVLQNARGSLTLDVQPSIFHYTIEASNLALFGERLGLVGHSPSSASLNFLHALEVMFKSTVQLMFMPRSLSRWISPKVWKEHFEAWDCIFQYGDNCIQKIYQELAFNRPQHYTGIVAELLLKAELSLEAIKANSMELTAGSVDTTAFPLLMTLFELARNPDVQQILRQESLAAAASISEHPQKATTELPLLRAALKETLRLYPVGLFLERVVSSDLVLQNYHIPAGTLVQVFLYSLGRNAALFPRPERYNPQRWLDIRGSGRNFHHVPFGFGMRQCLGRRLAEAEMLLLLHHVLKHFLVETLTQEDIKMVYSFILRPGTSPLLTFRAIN
The format is binding. The conditions noted are these: Adx-CYP11B2 fusion 0.2 μM, 5 cm path length.

Values joined by “and” are separate entries in the source; they are usually repeats but may differ in a detail not shown here. Identical values can stand only once.

With `N#Cc1ccc([C@H]2CCc3cncn32)c(F)c1` [LCI699, osilodrostat], the Amax on CYP11B2 is 0.019; in assay [2] it was 0.032. Further, the “increase of Amax (enzyme population binding inhibitor at saturation)” value in assay [1] was ~1.7 fold and 1.7 fold. Also, the “increase of Kd” value in assay [1] is 1.8 fold.

These data come from paper PMC8215293 (The Journal of Biological Chemistry, 2021).
